This is an account of results in US11453697B1, “Cyclic di-nucleotide compounds as sting agonists” (Merck Sharp & Dohme Corp., priority 2015, dated 2022).

The target in one assay is full-length HAQ STING (Homo sapiens (Human), UniProt Q86WV6, G230A/H232R/R293Q/R71H). The assay can be described thus: 3H-cGAMP filtration binding assay (HAQ STING). Conditions: competition with tritiated cGAMP, HAQ STING membrane; read-out: EC50 (nM), 3H-cGAMP filtration binding assay for HAQ STING. The source says:
The ability of compounds to bind STING is quantified by the ability to compete with tritiated cGAMP ligand for human STING receptor membrane using a radioactive filter-binding assay. The binding assay employs STING receptor obtained from Hi-Five cell membranes overexpressing full-length HAQ STING prepared in-house and tritiated cGAMP ligand also purified in-house.
The ability of compounds to bind STING is quantified by their ability to compete with tritiated cGAMP ligand for human STING receptor membrane using a radioactive filter-binding assay.
The basic HAQ STING filtration assay protocol is as follows:
Compound and membrane then preincubated for 60 min at RT to allow compound binding to equilibrate. Following equilibration, 8 nM of [^3H] c-GAMP ligand was prepared by diluting into assay buffer, and 50 uL of this working stock was then manually added to each well of the assay plate. […] The filter plates were then dried at 55° C. for 30 min using a pressurized VWR oven before 30 uL of Ultima GoldF scintillate was added to each well. Tritium levels for each reaction well were then measured using a PerkinElmer TopCount plate reader.
After normalization to controls, the percent activity for each compound concentration was calculated by measuring the amount of remaining radioactivity. The plot of percent activity versus the log of compound concentration was fit with a 4-parameter dose response equation to calculate EC50 values.

Assay [1] relates to IFN-β secretion in THP1 cells. The experiment in a line: IFN-β secretion in THP1 cell culture (5 h). In kind it is cell-based, human. Conditions: IFN-β secretion in THP1 cell culture, 5 h; compound at 30 μM; percent activation relative to 2′3′-cGAMP. On the procedure:
The ability of compounds to stimulate the secretion of interferon-beta from THP1 cells was measured using a human IFN-β AlphaLISA kit (Perkin Elmer, Cat. No. AL265F). The basic protocol is as follows:
The cell viability and count was ascertained using a Beckman Coulter V-Cell XR cell counter. The cells suspension was centrifuged at 200×g for 5 min at RT. […] Subsequent liquid transfers were performed using either a Matrix electronic multichannel pipette or an Agilent Bravo Automated Liquid Handling Platform.
The assay was started by dispensing 40 μL of the previously prepared cell suspension into the wells of the plate containing compounds. After 5 h incubation at 37° C., 5% CO2 in a humidified atmosphere, the plate of cells and compounds was centrifuged at 200×g for 5 min at RT. […] To these supernatant-containing wells was added 10 μL of 5× Anti-Analyte Acceptor beads (50 μg/mL of AlphaLISA HiBlock Buffer) and incubated for 30 min at RT while shaking on an orbital plate shaker. To each well was added 10 μL of 5× Biotinylated Antibody Anti-analyte (5 nM in AlphaLISA HiBlock Buffer) and incubated on an orbital plate shaker for 60 min at RT or overnight at 4° C. To each well was added 25 μL of 2× SA-Donor beads (80 μg/mL in AlphaLISA HiBlock Buffer) and incubated for 30-45 min at RT in the dark while shaking on an orbital plate shaker. The plate was then read on a Perkin Elmer Envision (λex=680 nm, λem=[…]). The percent effect of the AlphaLISA signal at each compound concentration was calculated based on 30 uM cGAMP positive controls and 0.3% DMSO negative controls. The plot of percent effect versus the log of compound concentration was fit with a 4-parameter concentration response equation to calculate EC50 values.
Compounds of the disclosure were evaluated for IFN-β secretion in THP1 cell culture as described above.

Each structure is given as a SMILES string.

full-length HAQ STING, sequence (Q86WV6 other isoform, or with tags, fused parts or gaps, stated change not applied): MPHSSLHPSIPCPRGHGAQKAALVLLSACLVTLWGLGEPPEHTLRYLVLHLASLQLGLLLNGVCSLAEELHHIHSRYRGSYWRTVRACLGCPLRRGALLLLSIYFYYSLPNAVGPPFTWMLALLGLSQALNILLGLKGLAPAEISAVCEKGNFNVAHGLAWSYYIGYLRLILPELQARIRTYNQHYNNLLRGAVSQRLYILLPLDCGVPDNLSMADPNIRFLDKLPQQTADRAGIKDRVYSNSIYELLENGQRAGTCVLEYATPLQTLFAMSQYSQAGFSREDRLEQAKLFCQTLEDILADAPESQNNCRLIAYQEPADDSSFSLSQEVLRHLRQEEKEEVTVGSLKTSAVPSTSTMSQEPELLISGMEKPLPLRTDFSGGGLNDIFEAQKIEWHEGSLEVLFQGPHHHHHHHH

As for `Nc1nc2c(ncn2[C@@H]2O[C@@H]3CO[P@@](=O)(S)O[C@H]4[C@@H](O)[C@H](n5cnc6c(=O)[nH]cnc65)O[C@@H]4CO[P@@](=O)(S)O[C@@H]2C3)c(=O)[nH]1` [Example 290, 2-amino-9-[(2R,5S,7R,8R,10R,12aR,14R,15R,15aS)-15-hydroxy-2,10-dioxido-14-(6-oxo-1,6-dihydro-9H-purin-9-yl)-2,10-disulfanyloctahydro-12H-5,8-methanofuro[3,2-l][1,3,6,9,11,2,10]pentaoxadiphosphacyclotetradecin-7-yl]-1,9-dihydro-6H-purin-6-one], the EC50 on full-length HAQ STING stood at 2.5 nM. Also, the “% Effect at 30 μM relative to 2′3′-cGAMP” value in assay [1] was found to be 90%. On the same counts, the results for `Nc1nc2c(ncn2[C@@H]2O[C@@H]3COP(=O)(O)O[C@H]4[C@H](F)[C@H](n5cnc6c(=O)[nH]cnc65)O[C@@H]4COP(=O)(O)O[C@@H]2[C@@H]3O)c(=O)[nH]1` [Example 295, 2-amino-9-[(5R,7R,8R,12aR,14R,15S,15aR,16R)-15-fluoro-2,10,16-trihydroxy-2,10-dioxido-14-(6-oxo-1,6-dihydro-9H-purin-9-yl)octahydro-12H-5,8-methanofuro[3,2-l] [1,3,6,9,11,2,10]pentaoxadiphosphacyclo-tetradecin-7-yl]-1,9-dihydro-6H-purin-6-one] are 29.6 nM and 70%. For the compound `Nc1ncnc2c1ncn2[C@@H]1O[C@@H]2COP(=O)(O)O[C@@H]3[C@H](O)[C@@H](COP(=O)(O)O[C@H]2[C@H]1O)O[C@H]3n1ncc2c(=O)[nH]cnc21` [Example 66, 1-[(5R,7R,8R,12aR,14R,15R,15aS,16R)-14-(6-amino-9H-purin-9-yl)-2,10,15,16-tetrahydroxy-2,10-dioxidooctahydro-12H-5,8-methanofuro[3,2-l][1,3,6,9,11,2,10]pentaoxadiphosphacyclotetradecin-7-yl]-1,5-dihydro-4H-pyrazolo[3,4-d]pyrimidin-4-one], the EC50 at full-length HAQ STING turned out to be 117 nM. In assay [1], the “% Effect at 30 μM relative to 2′3′-cGAMP” value worked out at 54%. In the same order, the values of `Nc1nc2c(ncn2[C@@H]2O[C@@H]3COP(=O)(O)O[C@H]4[C@H](F)[C@H](n5cnc6c(=O)[nH]cnc65)O[C@@H]4COP(=O)(O)O[C@@H]2[C@@H]3F)c(=O)[nH]1` [Example 315, 2-amino-9-[(5R,7R,8S,12aR,14R,15S,15aR,16R)-15,16-difluoro-2,10-dihydroxy-2,10-dioxido-14-(6-oxo-1,6-dihydro-9H-purin-9-yl)octahydro-12H-5,8-methanofuro [3,2-l][1,3,6,9,11,2,10]pentaoxadiphosphacyclotetradecin-7-yl]-1,9-dihydro-6H-purin-6-one] are 49.9 nM and 92%. On the same counts, the results for `CO[C@H]1[C@H]2OP(=O)(O)OC[C@H]3O[C@@H](n4cnc5c(O)ncnc54)[C@H](O)[C@@H]3OP(=O)(O)OC[C@H]1O[C@H]2n1cnc2c(=O)[nH]c(N)nc21` [Example 301, 2-amino-9-[(5R,7R,8R,12aR,14R,15R,15aS,16R)-2,10,15-trihydroxy-14-(6-hydroxy-9H-purin-9-yl)-16-methoxy-2,10-dioxidooctahydro-12H-5,8-methanofuro[3,2-l][1,3,6,9,11,2,10]pentaoxadiphosphacyclotetradecin-7-yl]-1,9-dihydro-6H-purin-6-one] are 4.8 nM and 107%. On the same counts, the results for `Nc1nc2c(ncn2[C@@H]2O[C@@H]3COP(=O)(O)O[C@H]4[C@@H](O)[C@H](c5n[nH]c6c(N)ncnc56)O[C@@H]4COP(=O)(O)O[C@@H]2[C@@H]3O)c(=O)[nH]1` [Example 49, 2-amino-9-[(5R,7R,8R,12aR,14S,15S,15aS,16R)-14-(7-amino-1H-pyrazolo[4,3-d]pyrimidin-3-yl)-2,10,15,16-tetrahydroxy-2,10-dioxidooctahydro-12H-5,8-methanofuro[3,2-l][1,3,6,9,11,2,10]pentaoxadiphosphacyclotetradecin-7-yl]-1,9-dihydro-6H-purin-6-one] are 30 nM and 74%. On to `Nc1nc2c(nnn2[C@@H]2O[C@@H]3COP(=O)(O)O[C@H]4[C@@H](O)[C@H](n5cnc6c(N)ncnc65)O[C@@H]4COP(=O)(O)O[C@@H]2[C@@H]3O)c(=O)[nH]1` [Example 69, 5-amino-3-[(5R,7R,8R,12aR,14R,15R,15aS,16R)-14-(6-amino-9H-purin-9-yl)-2,10,15,16-tetrahydroxy-2,10-dioxidooctahydro-12H-5,8-methanofuro[3,2-l][1,3,6,9,11,2,10]pentaoxadiphosphacyclotetradecin-7-yl]-3,6-dihydro-7H-[1,2,3]triazolo[4,5-d]pyrimidin-7-one], for which the EC50 on full-length HAQ STING was below 1 nM. With `Nc1nc2c(ncn2[C@@H]2O[C@@H]3COP(=O)(O)O[C@H]4C[C@H](n5cnc6c(=O)[nH]cnc65)O[C@@H]4COP(=O)(O)O[C@@H]2C3)c(=O)[nH]1` [Example 313, 2-amino-9-[(5S,7R,8R,12aR,14R,15aS)-2,10-dihydroxy-2,10-dioxido-14-(6-oxo-1,6-dihydro-9H-purin-9-yl)octahydro-12H-5,8-methanofuro[3,2-l] [1,3,6,9,11,2,10]pentaoxadiphosphacyclo-tetradecin-7-yl]-1,9-dihydro-6H-purin-6-one], the EC50 at full-length HAQ STING turned out to be 211 nM. Moreover, in assay [1], the “% Effect at 30 μM relative to 2′3′-cGAMP” value was 117%. As to `Nc1nc2c(ncn2[C@@H]2O[C@@H]3COP(=O)(S)OC4[C@@H](COP(=O)(S)O[C@H]2C3)O[C@@H](n2cnc3c(N)ncnc32)[C@H]4F)c(=O)[nH]1` (single isomer, unassigned) [Example 132], at full-length HAQ STING, the EC50 was found to be 25.9 nM. On the same count and under the same terms, in the case of `Nc1nc2c(ncn2[C@@H]2O[C@@H]3COP(=O)(S)O[C@H]4[C@@H](O)[C@H](n5ccc6c(N)ncnc65)O[C@@H]4COP(=O)(S)O[C@@H]2C3)c(=O)[nH]1` (single isomer, unassigned) [Example 80] it was 1.3 nM; in that of `Nc1nc2c(ncn2[C@@H]2O[C@@H]3CO[P@@](O)(=S)O[C@H]4[C@H](F)[C@H](n5cnc6c(N)ncnc65)O[C@@H]4CO[P@@](O)(=S)O[C@@H]2C3)c(=O)[nH]1` [Example 130, 2-amino-9-[(2R,5S,7R,8R,10R,12aR,14R,15S,15aR)-14-(6-amino-9H-purin-9-yl)-15-fluoro-2,10-dihydroxy-2,10-disulfidooctahydro-12H-5,8-methanofuro[3,2-l][1,3,6,9,11,2,10]pentaoxadiphosphacyclotetradecin-7-yl]-1,9-dihydro-6H-purin-6-one], below 1 nM; in that of `Nc1nc2c(ncn2[C@@H]2O[C@@H]3COP(=O)(S)O[C@H]4[C@@H](O)[C@H](n5ccc6c(N)ncnc65)O[C@@H]4COP(=O)(S)O[C@@H]2C3)c(=O)[nH]1` (single isomer, unassigned) [Example 78], 14.6 nM. Still for that read-out and setting: the result for `Nc1nc2c(ncn2[C@@H]2O[C@@H]3COP(=O)(S)O[C@H]4[C@@H](O)[C@H](n5ccc6c(N)ncnc65)O[C@@H]4COP(=O)(S)O[C@@H]2C3)c(=O)[nH]1` (single isomer, unassigned) [Example 79] reads 103 nM. Regarding `Nc1nc2c(ncn2[C@@H]2O[C@@H]3COP(=O)(S)OC4[C@@H](COP(=O)(S)O[C@H]2C3O)O[C@@H](n2cnc3c(N)ncnc32)[C@H]4F)c(=O)[nH]1` (single isomer, unassigned) [Example 82], in assay [1], the “% Effect at 30 μM relative to 2′3′-cGAMP” value was 111%. Consider `Nc1nc2c(ncn2[C@@H]2O[C@@H]3CO[P@@](=O)(S)O[C@H]4[C@H](F)[C@H](n5cnc6c(N)ncnc65)O[C@@H]4CO[P@@](=O)(S)O[C@@H]2[C@H]3F)c(=O)[nH]1` (single isomer, unassigned) [Example 144], for which the “% Effect at 30 μM relative to 2′3′-cGAMP” value in assay [1] came to 114%.

Consider `Nc1nc2c(nnn2[C@@H]2O[C@@H]3COP(=O)(S)O[C@H]4[C@H](F)[C@H](n5nnc6c(=O)[nH]cnc65)O[C@@H]4COP(=O)(S)O[C@@H]2[C@@H]3F)c(=O)[nH]1` (single isomer, unassigned) [Example 345], for which the “% Effect at 30 μM relative to 2′3′-cGAMP” value in assay [1] is reported as 144%.
